# Test results as given in PMC12251482, “Floridoside Phosphotriester Derivatives: Synthesis and Inhibition of Human Neutrophils’ Oxidative Burst” (Molecules, 2025).
# How the values were obtained:
# [1] = tested on: PMA-stimulated human neutrophils; assay: PMA-induced neutrophils' oxidative burst, oxidation of luminol (chemiluminescence); format: cell-based
# Procedure: Luminol is easily oxidized by reactive species produced during neutrophils’ oxidative burst, resulting in a chemiluminescent signal. The effect of the compounds under study on the modulation of neutrophil oxidative burst was determined after stimulation with PMA, a known neutrophil activator, because its effect is closely analogous to that obtained during the phagocytic process. Following a previously reported method, in a 96-well plate, neutrophils were incubated in the dark at 37 °C for 5 min with luminol (500 μM) and the tested compounds (10–100 μM) or DMSO (final concentration 4%). Quercetin, a flavonoid known for its anti-inflammatory activity (0.3–5.0 μM), and the inhibitor of NADPH oxidase, DPI (0.01–10 μM), were used as controls. After incubation, PMA (160 nM) was added, and the chemiluminescence was measured in a microplate reader (Synergy HT, BIO-TEK Instruments, Inc., Winooski, VT, USA). Kinetic readings were initiated immediately after cell stimulation. Measurements were taken at the peak of the curve. […] Effects are expressed as the inhibition percentage of luminol oxidation. The results obtained represent at least three independent experiments. […]
# 3.4 Evaluation of neutrophils' oxidative burst
# 3.4.1 Oxidation of luminol
# Luminol is easily oxidized by reactive species produced during neutrophils’ oxidative burst, resulting in a chemiluminescent signal. The eﬀect of the compounds under study on the modulation of neutrophil oxidative burst was determined after stimulation with PMA, a known neutrophil activator, because its eﬀect is closely analogous to that obtained during the phagocytic process. Following a previously reported method, in a 96-well plate, neutrophils were incubated in the dark at 37 °C for 5 minutes with luminol (500 µM) and the tested compounds (10 - 100 µM) or DMSO (ﬁnal concentration 4%). Quercetin, a ﬂavonoid known for its anti-inﬂammatory activity (0.3 - 5.0 µM), and the inhibitor of NADPH oxidase, DPI (0.01 - 10 µM), were used as positive and negative controls, respectively. After incubation, PMA (160 nM) was added, and the chemiluminescence was measured in a microplate reader (Synergy HT, BIO-TEK Instruments, Inc., Winooski, VT, USA). Kinetic readings were initiated immediately after cell stimulation. Measurements were taken at the […]
# peak of the curve. […] Eﬀects are expressed as the inhibition percentage of luminol oxidation. The obtained results represent at least three independent experiments.
# [2] = tested on: PMA-stimulated human neutrophils; assay: H2O2 generation by PMA-stimulated neutrophils, oxidation of Amplex Red; format: cell-based; details: PMA 160 nM, mean ± SEM
# Procedure: Amplex Red is a highly sensitive and chemically stable fluorescent probe for the extracellular detection of H2O2 [82]. The methodology used previously for monitoring the modulation of the oxidative burst was adapted. In a 96-well plate, neutrophils (2 × 10^6 cells/mL) were incubated in the dark at 37 °C for 5 min with Amplex Red (25 μM), horseradish peroxidase (0.25 U/mL), and the compounds under study (10–100 μM) or DMSO (4%). Quercetin (0.3–5.0 μM) and DPI (0.01–10 μM) were used as controls. After incubation, PMA (160 nM) was added, and the fluorescence (excitation at 530 nm and emission at 590 nm) was measured in a microplate reader (Synergy HT, BioTek Instruments, Inc., Winooski, VT, USA). Obtained values correspond to the slope measured between 5 and 10 min. Effects are expressed as the percentage inhibition of Amplex Red oxidation. The results obtained represent at least three independent experiments. […] 3.4.3 Oxidation of Amplex Red
# Amplex Red is a highly sensitive and chemically stable ﬂuorescent probe for the extracellular detection of H2O2 [16]. The methodology used previously for monitoring the modulation of the oxidative burst was adapted.
# In a 96-well plate, neutrophils (2 x 10^6 cells/mL) were incubated in the dark at 37 °C for 5 minutes with Amplex Red (25 µM), horseradish peroxidase (0.25 U/mL) , and the compounds under study (10 - 100 µM) or DMSO (4%). Quercetin (0.3 - 5.0 µM) and DPI (0.01 - 10 µM) were used as positive controls for inhibition. After incubation, PMA (160 nM) was added, and the ﬂuorescence (excitation at 530 nm and emission at 590 nm) was measured in a microplate reader (Synergy HT, BioTek Instruments, Inc., Winooski, VT, USA). Obtained values correspond to the slope measured between 5 and 10 minutes. Eﬀects are expressed as the percentage inhibition of Amplex Red oxidation. The obtained results represent at least three independent experiments.
# GraphPad Prism 6 software was used to plot the inhibition percentage versus compound concentration curves, enabling the determination of the concentration required to achieve 50% inhibition (IC50). GraphPad Prism 6 software was also used to perform all statistical analyses.
# […] was estimated by applying the one-way analysis (ANOVA), followed by the Bonferroni’s multiple comparisons test. In all cases, p-values < 0.05 were considered statistically signiﬁcant. The results are expressed as mean ± standard error of the mean (SEM).
compound,measurement,setting,value
3-Hydroxy-2-(galactopyranosyl)propyl dodecanoate [Compound 1e],IC50,"[1]; PMA 160 nM, mean ± SEM",83 ± 7 µM
same,Amplex Red: highest obtained % of inhibition,[2]; at 50 µM,<20% ^50µM
3-Hydroxy-2-galactopyranosylpropyl dioctyl phosphate [Compound 1b],Luminol: highest obtained % of inhibition,"[1]; at 25 µM, PMA 160 nM, mean ± SEM",36 ± 9% ^25µM
same,Amplex Red: highest obtained % of inhibition,[2]; at 25 µM,<20% ^25µM
"OCC(CO)OC1OC(CO)C(O)C(O)C1O [Compound 1a, 2-O-D-(galactopyranosyl)glycerol]",inhibition at 100 µM,"[1]; Homo sapiens, Neutrophil, at 100 µM, PMA 160 nM, mean ± SEM, read-out: Luminol: highest obtained % of inhibition",34 ± 7%
same,Effect on oxidative burst measured by luminol (in words),[1]; PMA-induced,no relevant activity
same,inhibition at 50 µM,"[2]; Homo sapiens, Neutrophil, at 50 µM, read-out: Amplex Red: highest obtained % of inhibition",< 20%
"CCCCCCCCCCCC(=O)OCC(CO)OC1OC(COP(=O)(OCCN)OCCN)C(O)C(O)C1O (stereo not drawn) [Compound 1h, 2-(6-(bis(2-Aminoethoxy))phosphoryl)galactopyranosyl-3-hydroxypropyl dodecanoate]",inhibition at 25 µM,"[1]; Homo sapiens, Neutrophil, at 25 µM, PMA 160 nM, mean ± SEM, read-out: Luminol: highest obtained % of inhibition",27 ± 15%
same,inhibition at 25 µM,"[2]; Homo sapiens, Neutrophil, at 25 µM, read-out: Amplex Red: highest obtained % of inhibition",< 20%
